Data: US9028856B2, “Synergistic pesticide compositions” (priority 2008, dated 2015)

Tests used:
[1] = system: susceptible/normal German cockroach (Monheim strain), Blattella germanica; experiment: Knockdown/mortality of male cockroaches under continuous exposure on treated glazed tile; assay type: in vivo; settings: Table 36, thiamethoxam/adjuvant in acetone, glazed tile, Monheim strain
Protocol: Treatments were allowed to dry overnight. […] Treatments were replicated a minimum of three times. […]
Treatments were allowed to dry overnight. […] Treatments were replicated a minimum of three times. Cockroach knockdown/mortality was evaluated at 5 minute intervals for the first 60 minutes after exposure and then at 2, 18 and 24 hours.

[2] = system: Odorous House ant, Tapinoma sessile; experiment: Knockdown/mortality of ant workers under continuous exposure on treated glazed tile; assay type: in vivo; settings: Table 35, thiamethoxam/adjuvant in acetone, glazed tile
Text: Actual coverage was about 5″×5″ (or 161 cm2) for easy handling. Treatments were allowed to dry overnight. […] Treatments were replicated minimum three times.
Treatments were allowed to dry overnight. […] Treatments were replicated minimum three times.
Treatments were allowed to dry overnight. […] Treatments were replicated a minimum of three times.
Treatments were allowed to dry overnight. […] Treatments were replicated minimum of three times. […] The results are shown in FIG. 84 (No adjuvant alone treatment was performed).

[3] = system: Aedes aegypti mosquito; experiment: USDA Petri Dish Method, 3 min exposure to treated glazed tile; assay type: in vivo; settings: Table 33, thiamethoxam/adjuvant in acetone, glazed tile, 3 min exposure
Protocol: Treatments were allowed to dry overnight. USDA Petri Dish Method was used as initial screening protocol. Twenty, 4-6 day old female Aedes aegypti mosquitoes were exposed to each treatment for 3 minutes and then moved to a clean untreated white paper index card. Treatments were replicated a minimum of three times. Mosquito knockdown was evaluated at various intervals through 7 hours after exposure. A small cotton ball soaked in sucrose solution was added on the screen top of the petri-dish as a drinking source. Mortality was evaluated at 24 hours after exposure.
MATERIALS AND METHODS: Solutions of resmethrin at 1 and 0.5% AI were prepared with and without adjuvant in acetone. […] USDA Petri Dish Method was used as initial screening protocol. Twenty, 4-6 day old female Aedes aegypti mosquitoes were exposed to each treatment for 3 minutes and then moved to a clean untreated white paper index card. Treatments were replicated a minimum of three times. Mosquito knockdown was evaluated at 3 minute intervals for the first 15 minutes and then at 5 minute intervals for the remainder of an hour. A small cotton ball soaked in sucrose solution was added on the screen top of the petri-dish as a drinking source. Mortality was evaluated at 24 hours after exposure.
Treatments were allowed to dry overnight. USDA Petri Dish Method was used as initial screening protocol. Twenty, 4-6 day old female Aedes aegypti mosquitoes were exposed to each treatment for 3 minutes and then moved to a clean untreated white paper index card. Treatments were replicated a minimum of three times. Mosquito knockdown was evaluated at various intervals through 6 hours after exposure. A small cotton ball soaked in sucrose solution was added on the screen top of the petri-dish as a drinking source. Mortality was evaluated at 24 hours after exposure.
Treatments were allowed to dry overnight. USDA Petri Dish Method was used as initial screening protocol. Twenty, 4-6 day old female Aedes aegypti mosquitoes were exposed to each treatment for 3 minutes and then moved to a clean untreated white paper index card. Treatments were replicated a minimum of three times. Mosquito knockdown was evaluated at 5 minute intervals for the first hour and then at 2, 4 and 6 hours. A small cotton ball soaked in sucrose solution was added on the screen top of the petri-dish as a drinking source. Mortality was evaluated at 24 hours after exposure.
Treatments were allowed to dry overnight. USDA Petri Dish Method was used as initial screening protocol. Twenty, 4-6 day old female Aedes aegypti mosquitoes were exposed to each treatment for 3 minutes and then moved to a clean untreated white paper index card. Treatments were replicated a minimum of three times. Mosquito knockdown was evaluated at 3-5 minute intervals for the first hour. A small cotton ball soaked in sucrose solution was then added on the screen top of the petri-dish as a drinking source. Mortality was evaluated at 24 hours after exposure.
Treatments were allowed to dry overnight. USDA Petri Dish Method was used as initial screening protocol. Twenty, 4-6 day old female Aedes aegypti mosquitoes were exposed to each treatment for 3 minutes and then moved to a clean untreated white paper index card. Treatments were replicated a minimum of three times. Mosquito knockdown was evaluated at various intervals through 2 hours after exposure. A small cotton ball soaked in sucrose solution was then added on the screen top of the petri-dish as a drinking source. Mortality was evaluated at 24 hours after exposure.
Treatments were allowed to dry overnight. USDA Petri Dish Method was used as initial screening protocol. Twenty, 4-6 day old female Aedes aegypti mosquitoes were exposed to each treatment for 3 minutes and then moved to a clean untreated white paper index card. Treatments were replicated a minimum of three times. Mosquito knockdown was evaluated at various hourly intervals. […]

[4] = system: Argentine ant, Linepithema humile; experiment: Knockdown/mortality of ant workers under continuous exposure on treated glazed tile; settings: Table 34, thiamethoxam/adjuvant in acetone, glazed tile
Protocol: (§1) Solutions of imidacloprid at 0.5% AI were prepared with and without methyl oleate @0.1, 1.0 and 5.0% in acetone. Treatments were applied using a micropipette to dispense 1 ml of test solution evenly on a 6″×6″ glazed tile. Actual coverage was about 5″×5″ (or 161 cm^2) for easy handling. Treatments were allowed to dry overnight. Ten Argentine ant workers were placed within a fluon or talc-coated PVC ring (φ7.6 cm×H 5.1 cm) under continuous exposure. A small vial filled with a cotton ball soaked in water was added as a drinking source after 3 hours. Treatments were replicated a minimum of three times. Evaluations for ant knockdown/mortality were made at various intervals and at 24 hours after exposure.
as §1, with “MATERIALS AND METHODS: Solutions” for “Solutions”, “linoleate” for “oleate”
as §1, with “MATERIALS AND METHODS: Solutions of” for “Solutions of”, “without methyl palmitate @0.1, 1.0” for “without methyl oleate @0.1, 1.0”, “after exposure. […]” for “after exposure.”

| SMILES | Average % Knockdown & Mortality after 30 min [1] [%] | Average % Knockdown & Mortality after 60 min [1] [%] | Average % Knockdown & Mortality after 90 min [1] [%] | Average % Knockdown & Mortality after 3 hr [1] [%] | Average % Knockdown & Mortality after 24 hr [1] [%] | Average % Knockdown & Mortality after 15 min [2] [%] | Average % Knockdown & Mortality after 30 min [2] [%] | Average % Knockdown & Mortality after 60 min [2] [%] | Average % Knockdown & Mortality after 2 hr [2] [%] | Average % Knockdown & Mortality after 20 hr [2] [%] | Average % Knockdown & Mortality after 2 hr [3] [%] | Average % Knockdown & Mortality after 3 hr [3] [%] | Average % Knockdown & Mortality after 7 hr [3] [%] | Average % Knockdown & Mortality after 24 hr [3] [%] | Average % Mortality after 15 min [4] [%] | Average % Mortality after 3 hr [4] [%] | Average % Mortality after 21 hr [4] [%] |
| --- | --- | --- | --- | --- | --- | --- | --- | --- | --- | --- | --- | --- | --- | --- | --- | --- | --- |
| CN1COCN(Cc2cnc(Cl)s2)/C1=N\[N+](=O)[O-] [Thiamethoxam (0.01%)] | 13 | 67 | 87 | 100 | 100 | 0 | 0 | 0 | 9 | 71 | 0 | 0 | 0 | 0 | 0 | 19 | 100 |
| CN1COCN(Cc2cnc(Cl)s2)/C1=N\[N+](=O)[O-] [Thiamethoxam (0.1%)] | 7 | 73 | 93 | 100 | 100 | 0 | 0 | 0 | 3 | 33 | 0 | 0 | 0 | 0 | 12 | 46 | 100 |
| CN1COCN(Cc2cnc(Cl)s2)/C1=N\[N+](=O)[O-] [Thiamethoxam (1%)] | 13 | 73 | 80 | 93 | 100 | 0 | 0 | 0 | 21 | 65 | 2 | 2 | 4 | 4 | 3 | 34 | 100 |
